Consider 3 compounds from patent US10568963B2, “Multifunctional nanoplatforms for fluorescence imaging and photodynamic therapy developed by post-loading photosensitizer and fluorophore to polyacrylamide nanoparticles” (HEALTH RESEARCH, INC., priority 2009, dated 2020).

Data set [1] relates to Colon 26 tumors. Nature of the data set: In-vivo photodynamic therapy (PDT), tumor regrowth monitored 60 days. The settings on record: BALB/c mice bearing Colon 26 tumors, PS dose 0.47 moles/kg, light 665 nm, 135 J/cm^2, 75 mW/cm^2, 24 hours post-injection. On the procedure:
Eight- to twelve-week-old BALB/cAnNCr mice (Jackson Laboratory, Bar Harbor, Me.) were inoculated subcutaneously (s.c.) with 1×10^6 Colon 26 cells. When tumors reached 40-70 mm^3, mice were injected i.v. (tail vein) with PS 1 (formulated in 1% Tween 80/D5W) or PAA nanoconstructs/formulations 6-10 suspended in water and further diluted in D5W. 24 hours post i.v. injection (dose of PS 1: […]), mice (BALB/c mice bearing Colon 26 tumors, 10 mice/group) were restrained in plexiglass holders and tumors were irradiated at 665 nm with a fluence and fluence rate of 135 J/cm^2 at 75 mW/cm^2, respectively, using a pumped argon-dye laser. The growth of tumors was measured two to three times per week and the mice were monitored for a total of 60 days post PDT treatment. When the tumor regrowth was >400 mm^3, the mice were euthanized according to the guidelines of the institute approved animal protocol.

The conditions of data set [2]: in vivo; cited from earlier work.
For data set [3] the following is noted: in vivo; cited from earlier work. The source holds these as a separate data set.
A short description of data set [4]: Water solubility. In kind it is physicochemical.

As to `CCCCCCOC(C)c1c(C)c2cc3nc(c4c5[nH]c(cc6nc(cc1[nH]2)C(C)=C6CC)c(C)c5C(=O)C4)[C@@H](CCC(=O)O)[C@@H]3C` (stereo partly drawn) [HPPH, 3-(1′-hexyloxyethyl)pyropheophorbide-a], the “PDT response (no tumor regrowth) / tumor cure” value in data set [1] and in data set [1] (listed as HPPH 1) was 40% throughout. Also, in data set [2], the plasma half lives was roughly 25 h. In addition, in data set [3], the skin phototoxicity result is “low skin phototoxicity”.
Take `CC1(C)C(=CC=C2CCCC(C=CC3=[N+](CCCCS(=O)(=O)[O-])c4ccc5ccccc5c4C3(C)C)=C2Cl)N(CCCCS(=O)(=O)[O-])c2ccc3ccccc3c21.[Na+]` [cyanine dye 2, IR820]: the solubility in water entry in data set [4] is given as “water insoluble”.
iodobenzyl pheophorbide-a: the plasma half lives in data set [2] is listed as roughly 25 h.
